According to patent US12083165B2, “Thymosin alpha 1 for use in treatment of cystic fibrosis” (SciClone Pharmaceuticals International (SG) PTE. LTD., priority 2015, dated 2024):

Experiments:
ΔF508 CFTR = ΔF508 CFTR (Homo sapiens, UniProt P13569, DEL508-508); experiment: Immunoblot of purified plasma membrane (PM) fraction for CFTR; format: cell-based; settings: 100 ng/ml Tα1, plasma membrane fraction
Experimental: CFTR Immunoblot Analysis. Immunoblot techniques using the anti-CFTR antibody (clone CF3, Abcam) were used to measure CFTR maturation in FRT, HEK-293, or HBE cells expressing CFTR or F508del-CFTR (34). After incubation, cells were harvested in ice-cold D-PBS solution (without calcium and magnesium) and pelleted at 1,000×g at 4° C. Cell pellets were lysed in 1% Nonidet P-40, 0.5% sodium deoxycholate, 200 mM NaCl, 10 mM Tris, pH 7.8, and 1 mM EDTA plus protease inhibitor mixture (1:250; Roche) for 30 min on ice. Lysates were spun for 10 min at 10,000×g at 4° C. to pellet nuclei and insoluble material. Approximately 12 μg total protein was heated in Laemmli buffer with 5% β-mercaptoethanol at 37° C. for 5 min and loaded onto a 3% to 8% Tris-acetate gel (Invitrogen). […] LiteAblotPlus chemiluminescence substrate (Euroclone S.p.A.), using ChemiDoc™ XRS+ Imagig system (Bio-Rad Laboratories) and blot quantification was obtained by densitometry image analysis using Image Lab 3.1.1 software (Bio-Rad).
The SV40 transformed CF airway epithelial cell line (CFBE41o−), homozygous for the ΔF508-CFTR mutation, was used (32). […] CFTR bands were quantified by densitometry and expressed as the C/B ratio. […] Densitometric measurement of the CFTR (C band) at the PM was expressed as CFTR PM/CFTR total ratio (Panel C, FIG. 2).

[1] = tested on: A. fumigatus-infected C57BL/6 and Cftr−/− mice; experiment: IL-1 cytokine levels in BAL by ELISA in CF mice with aspergillosis; format: in vivo; settings: 200 μg/kg/i.p. daily 6 days, 7 days post-infection
Experimental: (§1) Mice. Wild-type (WT) inbred C57BL6 mice, 8 to 12 weeks old, were purchased from Charles River Breeding Laboratories (Calco, Italy). Genetically engineered homozygote Cftr^−/− mice (33) were bred at the Cystic Fibrosis core animal facility at San Raffaele Hospital, Milan, Italy. Experiments were performed following protocols approved by the institutional animal committee and in accordance with European Economic Community Council Directive as well as institutional animal care and use guidelines.
(§2) Infection and treatments. Mice were anesthetized by i.p. injection of 2.5% avertin (Sigma Chemical Co, St. Louis, MO) before intranasal instillation of 2×10^7 A. fumigatus (Af293) resting conidia/20 μl saline. For histology, paraffin-embedded tissue were stained with Periodic acid-Schiff (PAS), and BAL fluid collection was done as described (21, 22). Treatments were as follow: Tα1 and the scrambled polypeptide were supplied as purified (the endotoxin levels were <0.03 pg/ml, by a standard limulus lysate assay) sterile, lyophilized, acetylated polypeptide. The sequences were as follows: Ac-[…]O (Tα1) (SEQ ID NO:1) and Ac-[…]OH (scrambled peptide) (SEQ ID NO:2). The lyophilized powders were reconstituted in sterile water and 200 μg/kg/i.p. were given daily for 6 consecutive days beginning the day of the infection.
(§3) Cytokine determination by ELISA. Cytokine levels in lung homogenates from treated and untreated mice were determined by cytokine-specific ELISA (R&D Systems, Inc. Space Import-Export srl, Milan, Italy) as described (21, 22)
C57BL/6 and Cftr^−/− mice were infected intranasally with live A. fumigatus conidia and treated with 200 μg/kg/i.p. Tα1 daily for 6 consecutive days beginning the day of the infection. […] The levels of IL-1β, IL-1α and IL-1RA in the BAL were measured by ELISA (pg/ml) at 7 days post-infection. The results shown represent pooled data from two experiments. *P<0.05; **P<0.01; ***P<0.001.

[2] = tested on: A. fumigatus-infected C57BL/6 and Cftr−/− mice; experiment: Th cytokines in lungs and transcription factors in draining thoracic lymph nodes (ELISA or RT-PCR); format: in vivo
Experimental: as §1, §2
Reverse transcriptase-polymerase chain reaction (RT-PCR). Total RNA extraction and synthesis and PCR of cDNA were done on total lung cells as described (21, 22). Amplification efficiencies were validated and normalized against Gapdh. The thermal profile for SYBR Green real-time PCR was at 95° C. for 3 min, followed by 40 cycles of denaturation for 30 s at 95° C. and an annealing/extension step of 30 s at 60° C. Each data point was examined for integrity by analysis of the amplification plot. The mRNA-normalized data were expressed as relative mRNA in treated cells compared to that of unstimulated cells.
as §3
The inflammatory Th17 pathway is involved in CF lung inflammation (21, 22, 43) while the Th2 pathway is associated with CF fungal allergy (44). For the assessment of the effects of Tα1 on Th cell activation, levels of Th cytokines in the lungs and of the corresponding transcription factors in the draining thoracic lymph nodes have been measured in C57BL/6 and Cftr^−/− mice infected and treated with Tα1 as above. Tα1 decreased Th17 (decreased levels of IL-17A and of the Th17 transcription factor Rorc), Th2 (low IL-4 and Gata3) cell activation while promoting both Th1 (increased IFN-γ and Tbet) and Treg (increased IL-10 and Foxp3) cell activity. […] The cytokine levels were assessed in lung homogenates (by ELISA or RT-PCR) and the expression of the corresponding Th transcription factors (by RT-PCR) in the draining thoracic lymph nodes. The results shown represent pooled data from two experiments. n.d. not done. *P<0.05; **P<0.01; ***P<0.001.

[3] = either type of mice (C57BL/6, Cftr−/−)
[4] = draining thoracic lymph nodes, RT-PCR

Sequence of ΔF508 CFTR (P13569 with tags, fused parts or gaps DEL508-508): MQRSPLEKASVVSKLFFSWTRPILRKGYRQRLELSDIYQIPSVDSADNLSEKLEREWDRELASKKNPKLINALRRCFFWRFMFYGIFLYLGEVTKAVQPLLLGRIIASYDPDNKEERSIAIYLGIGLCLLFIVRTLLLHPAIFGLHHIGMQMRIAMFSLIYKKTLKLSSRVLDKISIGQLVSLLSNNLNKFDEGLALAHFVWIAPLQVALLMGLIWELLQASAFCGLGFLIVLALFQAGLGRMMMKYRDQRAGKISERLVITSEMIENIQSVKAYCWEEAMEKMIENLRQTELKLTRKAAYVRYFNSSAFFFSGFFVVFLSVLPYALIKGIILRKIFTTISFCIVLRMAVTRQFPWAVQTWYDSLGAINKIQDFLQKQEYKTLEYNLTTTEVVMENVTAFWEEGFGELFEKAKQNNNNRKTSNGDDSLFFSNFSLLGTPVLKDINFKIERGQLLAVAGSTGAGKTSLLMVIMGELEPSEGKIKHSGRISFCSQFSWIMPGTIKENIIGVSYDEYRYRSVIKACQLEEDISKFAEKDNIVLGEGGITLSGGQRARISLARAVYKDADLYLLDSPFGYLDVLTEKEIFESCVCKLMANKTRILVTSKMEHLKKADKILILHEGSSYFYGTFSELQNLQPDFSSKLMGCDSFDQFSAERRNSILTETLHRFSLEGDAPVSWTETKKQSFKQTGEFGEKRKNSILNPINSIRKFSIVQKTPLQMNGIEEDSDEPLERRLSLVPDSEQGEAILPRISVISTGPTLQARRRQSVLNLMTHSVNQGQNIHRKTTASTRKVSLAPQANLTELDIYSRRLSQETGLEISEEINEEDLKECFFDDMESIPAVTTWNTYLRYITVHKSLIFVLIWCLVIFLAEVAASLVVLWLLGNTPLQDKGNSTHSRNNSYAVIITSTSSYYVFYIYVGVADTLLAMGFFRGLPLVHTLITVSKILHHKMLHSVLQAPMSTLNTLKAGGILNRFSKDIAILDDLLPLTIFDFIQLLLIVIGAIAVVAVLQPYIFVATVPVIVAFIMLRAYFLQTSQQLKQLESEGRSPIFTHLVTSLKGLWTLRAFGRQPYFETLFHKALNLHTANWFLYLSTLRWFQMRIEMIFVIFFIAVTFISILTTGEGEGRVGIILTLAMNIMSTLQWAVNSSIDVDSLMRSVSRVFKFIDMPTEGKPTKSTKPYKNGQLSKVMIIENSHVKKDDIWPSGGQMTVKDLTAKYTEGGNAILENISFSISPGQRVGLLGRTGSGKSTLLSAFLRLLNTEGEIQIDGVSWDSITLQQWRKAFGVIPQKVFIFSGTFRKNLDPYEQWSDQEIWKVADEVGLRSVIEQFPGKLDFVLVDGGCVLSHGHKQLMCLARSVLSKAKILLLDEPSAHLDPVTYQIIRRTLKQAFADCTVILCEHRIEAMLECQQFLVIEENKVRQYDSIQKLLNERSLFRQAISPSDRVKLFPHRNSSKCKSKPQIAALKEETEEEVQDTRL

Ac-Ser-Asp-Ala-Ala-Val-Asp-Thr-Ser-Ser-Glu-Ile-Thr-Thr-Lys-Asp-Leu-Lys-Glu-Lys-Lys-Glu-Val-Val-Glu-Glu-Ala-Glu-Asn-O (Ac-SDAAVDTSSEITTKDLKEKKEVVEEAEN-OH; not fully specified; printed as Ac-Ser-Asp-Ala-Ala-Val-Asp-Thr-Ser-Ser-Glu-Ile-Thr-Thr-Lys-Asp-Leu-Lys-Glu-Lys-Lys-Glu-Val-Val-Glu-Glu-Ala-Glu-Asn-O; listed as Homo sapiens) [Tα1, naturally occurring polypeptide of 28 amino acid; supplied as purified sterile, lyophilized, acetylated polypeptide]
expression of ΔF508 CFTR at PM (CFTR PM/CFTR total ratio) (ΔF508 CFTR): increased | levels of the inflammatory-blocking cytokine IL-1RA in the BAL [1]: increased | levels of IL-1α in the BAL [1, 3]: sharply decreased | levels of IL-1β in the BAL [1, 3]: sharply decreased | Foxp3 expression (Treg) [2, 4]: increased | Gata3 expression (Th2) [2, 4]: low | Tbet expression (Th1) [2, 4]: increased | Th17 transcription factor Rorc expression [2, 4]: decreased | IFN-γ level (Th1) ([2]; lung homogenates): increased | IL-4 level (Th2) ([2]; lung homogenates): low | IL-10 level (Treg) ([2]; lung homogenates): increased | IL-17A level (Th17) ([2]; lung homogenates, infected and Tα1-treated C57BL/6 and Cftr−/− mice): decreased
